Assay results as given in patent US7608761B2, “Method for disease control in MON89788 soybean” (Monsanto Technology LLC, priority 2005, dated 2009).

How the values were obtained:
Asian Soybean Rust (ASR) = test: Greenhouse assay on intact MON89788 plants, ASR; format: in vivo, Phakopsora sp.
Description: Greenhouse assays on intact MON89788 plants were treated with 1×, 2×, and 3× rates of Roundup® WeatherMax at 6 DBI (days before inoculation) and 9 DAI. Results for this experiment were collected 17 DAI.

[1] = tested on: Asian Soybean Rust (ASR) (Loxley Al isolate); test: Growth chamber detached soybean leaf assay, ASR on MON89788; format: in vivo, Phakopsora sp.
Description: Growth chamber and greenhouse assays were conducted to determine if glyphosate treatments (Roundup® WeatherMax) decreased the disease severity of Asian Soybean Rust (ASR) on MON89788. Growth chamber assays were conducted following a detached leaf assay method. Plants of MON89788 were grown in the greenhouse and leaves from the 3rd trifoliate were detached and placed in 6-well trays with water. Five treatments were evaluated: (1) an untreated check inoculated with spores of ASR (Loxley Al isolate); (2) leaf tissue of MON89788 inoculated with ASR spores and treated with glyphosate post-sporulation (13 days after inoculation with spores (DAI)); (3) MON89788 treated with 1× rate (0.75 lb/acre) of Roundup® WeatherMax 5 DAI; (4) MON89788 treated with […] of Roundup® WeatherMax 5 DAI; and (5) MON89788 treated with 3× rate of Roundup® WeatherMax 5 DAI.
The leaves were rated for disease severity 12 DAI, 20 DAI, and 25 DAI.
The analysis of the disease progression is illustrated in FIG. 2 and measured as the Area Under Disease Progress Curve (AUDPC) for the same material summarized in FIG. 1. […] The disease progression was reduced for all glyphosate treatments at 5DAI and the 2× rate post-sporulation.

[2] = tested on: Aerial blight (Rhizoctonia solani); test: Greenhouse disease severity on MON89788, Aerial blight; format: in vivo; details: for Aerial Blight disease severity (DS): 1-9 scale
Description: (§1) Soybean plants comprising event MON89788 and grown under standard conditions in a greenhouse were treated with 1×, 2× or 3× concentrations of glyphosate and inoculated with the plant pathogens 1 DBI, 1 DAI and 4 DAI. Disease symptoms for each disease was rated on a 1-9 scale as an approximate measure of disease severity (DS)occurring on the leaves, 1 is no symptoms, 2 is up to 10% of the leaf infected, 3 is 11-20% of the leaf infected, 4 is 21-35%, 5 is 36-50%, 7 is 66-75%, 8 is 76-85%, 9 is greater than 85% of the leaf is infected and showing disease symptoms.

[3] = tested on: Frogeye Leafspot (Cercospora sojina); test: Greenhouse disease severity on MON89788, Frogeye Leafspot; format: in vivo; parameters: key to Frogeye disease severity (DS): 1 = no symptoms; 2 = ≤10% leaf infected … 9 = >85% leaf infected; details: for Frogeye disease severity (DS): 1-9 scale
Description: as §1

Cercospora leaf blight = test: Greenhouse disease severity on MON89788, Cercospora leaf blight; format: in vivo, Cercospora carotae; parameters: key to Cercospora Leaf Blight disease severity (DS): 1 = no symptoms; 2 = ≤10% leaf infected … 9 = >85% leaf infected; details: 1-9 scale
Description: as §1

[4] = tested on: Cercospora leaf blight (Cercospora carotae); test: as above; format: in vivo; parameters: key to Cercospora Leaf Blight disease severity (DS): 1 = no symptoms; 2 = ≤10% leaf infected … 9 = >85% leaf infected; details: 1×, 2× or 3×; 1 DBI, 1 DAI and 4 DAI
Description: as §1

powdery mildew disease = test: Powdery mildew disease control on MON89788; format: in vivo, Microsphaera diffusa; details: for DS Mean (powdery mildew): treated 1 DBI, no spray control 4.65
Description: The mean disease severity score for the no spray control was 4.65, the glyphosate treatments provided a high level of disease control at all treatment rates.

[5] = 1×, 2× or 3×, 1 DBI, 1 DAI and 4 DAI

O=C(O)CNCP(=O)(O)O [glyphosate, N-phosphonomethylglycine]
levels of ASR infection and disease (Asian Soybean Rust (ASR); 1×, 2×, 3× at 6 DBI or 9 DAI, all except 1× at 6 DBI, collected 17 DAI): lower levels of ASR infection and disease
rate of ASR disease development (Asian Soybean Rust (ASR); pre-inoculation treatments): appeared to slow the rate of disease development
levels of ASBR (Asian Soybean Rust (ASR); split treatments (1× pre+1× post-inoculation)): reduced levels of ASBR similar to single 2× and 3× pre- or post-inoculation
Area Under Disease Progress Curve (AUDPC) ([1]; 2× rate): lower compared to other treatments
disease progression (AUDPC) ([1]; 2× rate post-sporulation): reduced
Area Under Disease Progress Curve (AUDPC) ([1]; 3× rate): lower compared to other treatments
disease progression (AUDPC) ([1]; all glyphosate treatments at 5DAI): reduced
ASR sporulation ([1]; post-disease development/sporulation treatments): appeared to arrest sporulation
Aerial Blight disease severity (DS) ([2]; 1 day post inoculation, 1X): 5.0
Aerial Blight disease severity (DS) ([2]; 1 day post inoculation, 2X): 6.4
Aerial Blight disease severity (DS) ([2]; 1 day post inoculation, 3X): 6.9
Aerial Blight disease severity (DS) ([2]; 1 day pre inoculation, 1X): 7.1
Aerial Blight disease severity (DS) ([2]; 1 day pre inoculation, 3X): 8.0
Aerial Blight disease severity (DS) ([2]; 4 days post inoculation, 1X): 7.6
Aerial Blight disease severity (DS) ([2]; 4 days post inoculation, 2X): 4.4
Aerial Blight disease severity (DS) ([2]; 4 days post inoculation, 3X): 7.9
disease severity control, Aerial blight [2, 5]: preventative and curative disease severity control
Frogeye disease severity (DS) ([3]; 1 day post inoculation, 1X): 3.4
Frogeye disease severity (DS) ([3]; 1 day post inoculation, 2X): 3.3
Frogeye disease severity (DS) ([3]; 1 day post inoculation, 3X): 7.2
Frogeye disease severity (DS) ([3]; 1 day pre inoculation, 1X): 2.7
Frogeye disease severity (DS) ([3]; 1 day pre inoculation, 2X): 3.7
Frogeye disease severity (DS) ([3]; 1 day pre inoculation, 3X): 3.8
Frogeye disease severity (DS) ([3]; 4 days post inoculation, 1X): 3.7
Frogeye disease severity (DS) ([3]; 4 days post inoculation, 2X): 5.3
Frogeye disease severity (DS) ([3]; 4 days post inoculation, 3X): 2.3
disease severity control, Frogeye Leafspot [3, 5]: preventative and curative disease severity control
Cercospora Leaf Blight disease severity (DS) (Cercospora leaf blight; 1 day post inoculation, 1X): 2.8
Cercospora Leaf Blight disease severity (DS) (Cercospora leaf blight; 1 day post inoculation, 2X): 6.4
Cercospora Leaf Blight disease severity (DS) (Cercospora leaf blight; 1 day post inoculation, 3X): 6.5
Cercospora Leaf Blight disease severity (DS) (Cercospora leaf blight; 1 day pre inoculation, 1X): 2.8
Cercospora Leaf Blight disease severity (DS) (Cercospora leaf blight; 1 day pre inoculation, 2X): 6.1
Cercospora Leaf Blight disease severity (DS) (Cercospora leaf blight; 1 day pre inoculation, 3X): 3.8
Cercospora Leaf Blight disease severity (DS) (Cercospora leaf blight; 4 days post inoculation, 1X): 3.3
Cercospora Leaf Blight disease severity (DS) (Cercospora leaf blight; 4 days post inoculation, 2X): 3.2
Cercospora Leaf Blight disease severity (DS) (Cercospora leaf blight; 4 days post inoculation, 3X): 4.9
disease severity control, Cercospora leaf blight [4]: preventative and curative disease severity control
DS Mean (powdery mildew) (powdery mildew disease; 0.75 lb ae/a (1X)): 1
DS Mean (powdery mildew) (powdery mildew disease; 1.5 lb ae/a (2X)): 1
DS Mean (powdery mildew) (powdery mildew disease; 2.25 lb ae/a (3X)): 1
control of powdery mildew disease (powdery mildew disease; treated 1 DBI with any of the three rates): high level of control
